Data as given in patent US20130041142A1, “HUMAN SWEET TASTE RECEPTOR-ACTING SWEET TASTE REGULATING SUBSTANCE TO SWEET TASTE SUBSTANCE” (priority 2009, published 2013).
Peptide text beside a SMILES is read from it.

Biological target: T1, human sweet taste receptor (hT1R2+hT1R3) (Homo sapiens, UniProt Q7RTX0+Q8TE23)
T1 construct: includes all portions of respective subunits, that is, all regions of a transmembrane domain; pcDNA5/FRT construct co-transfected with pOG44
T1 sequence (Q8TE23 20-839): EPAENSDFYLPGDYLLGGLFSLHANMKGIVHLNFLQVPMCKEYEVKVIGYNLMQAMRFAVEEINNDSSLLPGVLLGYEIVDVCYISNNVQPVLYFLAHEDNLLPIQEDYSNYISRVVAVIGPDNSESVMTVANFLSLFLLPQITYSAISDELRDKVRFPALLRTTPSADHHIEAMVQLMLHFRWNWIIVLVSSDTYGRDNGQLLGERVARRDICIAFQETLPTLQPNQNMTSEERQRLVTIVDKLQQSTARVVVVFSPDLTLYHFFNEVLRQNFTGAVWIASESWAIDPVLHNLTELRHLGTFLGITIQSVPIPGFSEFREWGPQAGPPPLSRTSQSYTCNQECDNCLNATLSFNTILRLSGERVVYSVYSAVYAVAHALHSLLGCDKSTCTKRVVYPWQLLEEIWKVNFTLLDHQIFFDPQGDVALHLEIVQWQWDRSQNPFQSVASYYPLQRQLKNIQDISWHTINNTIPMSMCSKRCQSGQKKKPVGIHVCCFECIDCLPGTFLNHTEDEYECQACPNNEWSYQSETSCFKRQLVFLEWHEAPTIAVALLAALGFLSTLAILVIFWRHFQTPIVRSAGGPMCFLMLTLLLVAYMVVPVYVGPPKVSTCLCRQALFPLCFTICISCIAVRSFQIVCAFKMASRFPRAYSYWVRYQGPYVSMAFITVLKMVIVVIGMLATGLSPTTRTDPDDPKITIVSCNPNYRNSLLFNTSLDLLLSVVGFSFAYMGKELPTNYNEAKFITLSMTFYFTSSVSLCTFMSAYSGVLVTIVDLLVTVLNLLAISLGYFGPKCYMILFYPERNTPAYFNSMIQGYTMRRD
T1 sequence (Q7RTX0 21-852): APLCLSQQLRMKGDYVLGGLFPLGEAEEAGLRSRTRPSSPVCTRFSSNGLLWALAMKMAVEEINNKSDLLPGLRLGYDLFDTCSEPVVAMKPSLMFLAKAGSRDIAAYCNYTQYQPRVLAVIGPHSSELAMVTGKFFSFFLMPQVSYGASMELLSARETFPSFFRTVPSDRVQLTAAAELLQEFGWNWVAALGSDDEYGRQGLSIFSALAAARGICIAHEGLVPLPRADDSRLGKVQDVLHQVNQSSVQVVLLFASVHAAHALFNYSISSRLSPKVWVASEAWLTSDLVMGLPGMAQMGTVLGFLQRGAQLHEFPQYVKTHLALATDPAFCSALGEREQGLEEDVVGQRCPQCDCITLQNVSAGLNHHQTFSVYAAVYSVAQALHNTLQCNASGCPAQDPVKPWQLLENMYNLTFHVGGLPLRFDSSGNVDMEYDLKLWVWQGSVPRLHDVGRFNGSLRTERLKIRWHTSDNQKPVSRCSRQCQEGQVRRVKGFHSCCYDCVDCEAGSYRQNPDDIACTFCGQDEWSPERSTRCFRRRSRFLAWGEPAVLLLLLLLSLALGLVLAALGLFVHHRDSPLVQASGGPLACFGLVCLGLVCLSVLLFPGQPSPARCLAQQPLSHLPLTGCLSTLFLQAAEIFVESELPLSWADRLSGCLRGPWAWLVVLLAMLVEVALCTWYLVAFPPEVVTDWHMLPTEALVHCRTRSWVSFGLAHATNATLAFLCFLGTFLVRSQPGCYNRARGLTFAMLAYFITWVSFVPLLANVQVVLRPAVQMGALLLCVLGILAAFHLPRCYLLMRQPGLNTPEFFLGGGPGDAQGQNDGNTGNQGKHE
Assay: automated fluorescent calcium imaging (Fluo-4 AM, FlexStation 3) of sweet taste receptor-expressing cells
Type: cell-based
Settings: for Change amount in fluorescent intensity (ΔF): 27° C., to 100 seconds
Experimental: After cultured at 37° C. for 24 hours, the medium was removed, and replaced with 50 μl of a HEPES buffer, and […] of a HEPES buffer containing a fluorescent calcium indicator (Fluo-4 AM attached to Molecular Devices, FLIPR Ca 4 Assay Kit) was further added. Then, this was incubated at 27° C. for 45 minutes to prepare a cell to be subjected to automated fluorescent imaging. […]
In the same manner as that described above, […] subjected to automated fluorescent imaging, so that a final concentration of sucrose became a concentration described in Table 2, a HEPES buffer containing conc. neohesperidin dihydrochalcone was further added so that a final concentration of neohesperidin dihydrochalcone became 2 v/v %, stimulation was performed at 27° C., a fluorescent reaction (excitation at 485 nm, fluorescence at 525 nm) from immediately after addition of the solution to after 100 seconds was measured by using FlexStation 3 (Molecular Devices), and a response of a sweet taste receptor-expressing cell when neohesperidin dihydrochalcone was added to sucrose was quantitated. The vertical axis of FIG. 3 is a maximum (ΔF) of a change amount in a fluorescent intensity between immediately after stimulation and after 100 seconds from stimulation, that is, a response intensity of a cell, and the horizontal axis indicates a sucrose concentration (mM) as expressed by logarithm.

COC(=O)[C@H](Cc1ccccc1)NC(=O)[C@@H](N)CC(=O)O [Aspartame, aspartame] (H-Asp-Phe-OMe)
Change amount in fluorescent intensity (ΔF) (aspartame 0.167 mM alone): 6.568 | Change amount in fluorescent intensity (ΔF) (aspartame 0.333 mM alone): 12.578 | Change amount in fluorescent intensity (ΔF) (aspartame 0.667 mM alone): 33 | Change amount in fluorescent intensity (ΔF) (aspartame 2 mM alone): 72.005

OC[C@H]1O[C@@](CO)(O[C@H]2O[C@H](CO)[C@@H](O)[C@H](O)[C@H]2O)[C@@H](O)[C@@H]1O [Sucrose, sucrose]
Change amount in fluorescent intensity (ΔF) (sucrose 3.125 mM alone): 4.2 | Change amount in fluorescent intensity (ΔF) (sucrose 6.25 mM alone): 4.6 | Change amount in fluorescent intensity (ΔF) (sucrose 12.5 mM alone): 4.1 | Change amount in fluorescent intensity (ΔF) (sucrose 25 mM alone): 5.7 | Change amount in fluorescent intensity (ΔF) (sucrose 50 mM alone): 9.2 | Change amount in fluorescent intensity (ΔF) (sucrose 100 mM alone): 23.3 | Change amount in fluorescent intensity (ΔF) (sucrose 200 mM alone): 34.9 | concentration below which a response of a sweet taste receptor cell is not observed (sucrose alone): around 50 mM

O=C1NS(=O)(=O)c2ccccc21 [Saccharin, saccharin]
Change amount in fluorescent intensity (ΔF) (saccharin 0.167 mM alone): 7.609 | Change amount in fluorescent intensity (ΔF) (saccharin 0.333 mM alone): 22.936 | Change amount in fluorescent intensity (ΔF) (saccharin 0.667 mM alone): 56.59 | Change amount in fluorescent intensity (ΔF) (saccharin 2 mM alone): 86.194
